# Measured values published in patent US9381203B2, “Combination therapies for treatment of laminopathies, cellular aging, and atherosclerosis” (priority 2013, dated 2016).
# Tested on: HGPS patients
# Test: Kaplan-Meier survival analysis of treated vs. untreated HGPS patients
# Format: in vivo, human
# Excerpt: Survival data of untreated subjects was collected from hospital case studies, newspaper articles, and other publicly available databases. “Untreated subjects” were defined as HGPS-diagnosed subjects who had no exposure to HGPS clinical treatment trial medications. In total, data from 155 subjects; including 100 deceased and 55 living, was used in the analysis, the cut-off date for which was Dec. 3, 2012.
# “Treated subjects” were defined as all subjects who were enrolled in one or both of two HGPS farnesyltransferase inhibitor (FTI) clinical treatment trials to date, for any length of time. Treatment conditions for the initial, FTI-only, trial are described in Gordon et al., PNAS, 109:16666/16671, 2012. Treatment conditions for the three-drug combination of lonafarnib, pravastatin, and zoledronic acid, are described in Example 1. In total data from 43 subjects; including 4 deceased and 39 living, was included in the analysis.
# Kaplan-Meier survival analyses were carried out using SAS statistical analysis software.
smiles,measurement,setting,value
"NC(=O)N1CCC(CC(=O)N2CCC([C@H]3c4ncc(Br)cc4CCc4cc(Cl)cc(Br)c43)CC2)CC1 [FTI, lonafarnib]","Mean years of survival, treated vs. untreated","all subject groupings of FIG. 5, FTI only or with pravastatin and zoledronic acid",significant increase in mean years of survival
same,Survival of treated vs. untreated patients (Kaplan-Meier),"entire sample, 43 treated (FTI only or with pravastatin and zoledronic acid) vs. 155 untreated, FIG. 1",significant survival benefit
